From article PMC9974488, “Probing coenzyme A homeostasis with semisynthetic biosensors” (Nature Chemical Biology, 2022)

What was measured:
[1] = molecular target: T1, pantothenate kinase (ecPanK) (Escherichia coli, UniProt P0A6I3); assay: fluorescence polarization competition against TMR-TAZ; type: binding
T1 construct: gene coaA; ecPanK WT, N-terminal Strep-tag, C-terminal Hisx10
T1 sequence (P0A6I3 1-316): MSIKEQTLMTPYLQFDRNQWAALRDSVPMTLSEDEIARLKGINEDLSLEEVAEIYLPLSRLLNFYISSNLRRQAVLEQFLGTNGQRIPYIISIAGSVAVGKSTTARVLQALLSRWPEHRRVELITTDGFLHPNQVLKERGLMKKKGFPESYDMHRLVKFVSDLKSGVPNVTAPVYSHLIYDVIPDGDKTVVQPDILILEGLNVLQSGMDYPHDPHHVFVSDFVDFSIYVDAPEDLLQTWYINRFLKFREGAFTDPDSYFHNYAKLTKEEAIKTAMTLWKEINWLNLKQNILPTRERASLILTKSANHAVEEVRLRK

[2] = molecular target: T1, pantothenate kinase (ecPanK); assay: biochemical; design: fluorescence polarization competition against 50 nM TMR-TAZ with 20 uM ecPanK, half-maximal c50
Protocol: The binding affinity (c50) of different ecPanKs for CoA and AcCoA were determined by a fluorescence polarization competition assay against TMR-TAZ. 50 nM TMR-TAZ and 20 μM ecPanKs, except ecPanK^D127A,F252Y,L277W (100 μM), were titrated against CoA or AcCoA concentrations ranging from 64 nM to 5 mM in PBS supplemented with 0.5 mg ml^−1 BSA and 50 mM HEPES. Assays were performed in non-binding black 96-well plates with a final volume of 50 μl with excitation at 520 nm (bandwidth 20 nm) and emission 600 nm (bandwidth 20 nm). Obtained FP values were averaged and fitted to equation (4) to estimate the c50 values using OriginPro 2021.4 FP=FP0+FPs−FP0/1+c50/[L] Where FP0 is the fluorescence polarization of the fluorophore with ecPanKs in the absence of CoA or AcCoA (bound fluorophore), FPs is the fluorescence polarization of the fluorophore in the presence of CoA or AcCoA (free fluorophore) c50 is the half-maximal effective concentration, and [L] is the concentration of CoA or AcCoA. […] Representative in-gel fluorescence scan after SDS-PAGE (n = 3 independent experiments) of Halo-SiR labeled sensor proteins, Lane 1: protein marker, lane 2: CoA-Snifit^V97T, lane 3: CoA-Snifit^G41, lane 4: CoA-Snifit^G41S, lane 5: CoA-Snifit^G41N. c. […] Fluorescence polarization responses (FP, mean ± s.d., n = 3 independent replicates) of 50 nM TMR-TAZ as a function of ecPanK^WT concentration in PBS. e. […]

[3] = molecular target: T1, pantothenate kinase (ecPanK); assay: fluorescence polarization, purified protein titrated against […] TMR-TAZ; type: binding
[4] = molecular target: T2, pantothenate kinase (ecPanK) (Escherichia coli, UniProt P0A6I3, D127A/F252Y/L277W); assay: fluorescence polarization; type: binding
T2 construct: gene coaA; ecPanK D127A,F252Y,L277W

| Structure (SMILES) | fluorescence polarization competition against TMR-TAZ [1] | IC50 [2] [µM] | Kd [3] [µM] | Kd [4] [µM] |
| --- | --- | --- | --- | --- |
| CC(C)(COP(=O)(O)OP(=O)(O)OC[C@H]1O[C@@H](n2cnc3c(N)ncnc32)[C@H](O)[C@@H]1OP(=O)(O)O)[C@@H](O)C(=O)NCCC(=O)NCCS [Coenzyme A] | CoA competes with TMR-TAZ for binding to ecPanK (Extended Data Fig. 1e) | 214 ± 19.2 |  |  |
| CC(=O)SCCNC(=O)CCNC(=O)[C@H](O)C(C)(C)COP(=O)(O)OP(=O)(O)OC[C@H]1O[C@@H](n2cnc3c(N)ncnc32)[C@H](O)[C@@H]1OP(=O)(O)O [acetyl-CoA] |  | 1420 ± 315 |  |  |
| CC(NC(=O)c1ccccc1C(F)(F)F)c1nnc(SCc2ccc(F)cc2)n1Cc1ccc(COC(=O)NCCOCCOCCNC(=O)c2ccc(C(=O)O)c(-c3c4ccc(=[N+](C)C)cc-4oc4cc(N(C)C)ccc34)c2)nc1 (centres unmarked) [compound 1, TMR-TAZ] |  |  | 1.2 ± 0.2 | 21.6 ± 3.7 |
